US20220370465A1, “TREATMENT OF MAST CELL DISEASES AND EOSINOPHILIC DISORDERS” (Blueprint Medicines Corporation, priority 2019, published 2022)

Experiments:
[1] = tested on: tyrosine kinase inhibitor (TKI)-resistant mastocytoma model; test: TKI-resistant mastocytoma model in vivo
mast cells = test: Mast cell activation, proliferation and survival; format: cell-based
Description: In a specific embodiment, the D816 mutation is D816V. In another specific embodiment, the D816 mutation is D816Y. […] In some embodiments, the inhibition is in a dose-dependent manner. […] Current treatment paradigms for mast cell diseases focus on inhibiting individual mast cell mediators for symptom control (anti-histamines, anti-IgE antibodies, etc.), or on using KIT exon 17 inhibitors in KIT mutant mMCAS.

Cn1cc(-c2cc3c(N4CCN(c5ncc([C@@](C)(N)c6ccc(F)cc6)cn5)CC4)ncnn3c2)cn1 [Compound (I), (5)-1-(4-fluorophenyl)-1-(2-(4-(6-(1-methyl-1H-pyrazol-4-yl)pyrrolo[2,1-f][1,2,4]triazin-4-yl)piperazin-yl)pyrimidin-5-yl)ethan-1-amine]
growth inhibition in mastocytoma model [1]: robust growth inhibition | mast cell activation (mast cells): inhibits mast cell activation | mast cell proliferation (mast cells): inhibits mast cell proliferation | survival of mast cells (mast cells): does not interfere with the survival of mast cells
